Test results taken from PubChem BioAssay AID236 (DTP/NCI, 2004).
Where “and” joins values, the source holds several entries; their conditions need not be identical. Identical values can stand only once. Toxic doses and inconclusive results are not listed.

Test system: AK4 lymphoid leukemia ip, C3AKF1 mice, survival
Assay: NCI In Vivo Anticancer Drug Screen. Data for tumor model AK4 Lymphoid Leukemia (intraperitoneal) in C3AKF1 (CHKRF1) mice
Conditions: endpoint: median survival time, schedule: Q01DX010 (ip), vehicle: saline, higher = longer survival
Experimental: The antitumor activity of compounds was measured in mice bearing transplantable tumors. Survival or tumor size were measured and the results are expressed as the measurement made in the treated group (T) divided by the measurement made in the vehicle treated control group (C). The tumor model used in this assay is AK4 Lymphoid Leukemia (intraperitoneal) in C3AKF1 (CHKRF1) mice

Q: How did the T/C (dose: 25.0 mg/kg/injection) turn out when `O=C1C(NC(=O)C2CCCCC2)=C(N2CC2)C(=O)C(NC(=O)C2CCCCC2)=C1N1CC1` was run?
A: 90 % of control

Q: What about the T/C (dose: 50.0 mg/kg/injection) of the same compound?
A: 95 % of control and 100 % of control

Q: And the T/C (dose: 100.0 mg/kg/injection)?
A: 95 % of control and 100 % of control

Q: And the T/C (dose: 200.0 mg/kg/injection)?
A: 100 % of control and 110 % of control

Q: What about the T/C (dose: 400.0 mg/kg/injection) of the same compound?
A: 116 % of control

Q: Which results are given for `COc1cc(-c2ccc(Nc3ccccc3C(=O)O)c(OC)c2)ccc1Nc1ccccc1C(=O)O`?
A: T/C (dose: 12.5 mg/kg/injection): 112 % of control; T/C (dose: 25.0 mg/kg/injection): 112 % of control and 122 % of control; T/C (dose: 100.0 mg/kg/injection): 162 % of control

Q: `O=C(O)c1[nH]c(=O)[nH]c(=O)c1F` was tested. Which T/C (dose: 1.25 mg/kg/injection) did it give?
A: 105 % of control

Q: What about the T/C (dose: 2.5 mg/kg/injection) of the same compound?
A: 122 % of control

Q: And the T/C (dose: 10.0 mg/kg/injection)?
A: 155 % of control and 205 % of control

Q: And the T/C (dose: 20.0 mg/kg/injection)?
A: 111 % of control
